Experimental data: ChEMBL document CHEMBL4616724, “Topoisomerase Inhibitors Addressing Fluoroquinolone Resistance in Gram-Negative Bacteria” (J Med Chem, 2020)
≈ marks a conversion by molar mass, not a printed value.

Columns and labels:
Format in all cases: functional
Pseudomonas aeruginosa [1] = assay: Antibacterial activity against Pseudomonas aeruginosa K1542/K767 harboring MexB/MexXY deletion mutant by CLSI-based broth microdilution assay
Pseudomonas aeruginosa [2] = assay: Antibacterial activity against Pseudomonas aeruginosa NB52023 harboring gyrA T83I mutant/ParC S87L mutant by CLSI-based broth microdilution assay
Pseudomonas aeruginosa [3] = assay: Antibacterial activity against wild type Pseudomonas aeruginosa PAO1 K767 by CLSI-based broth microdilution assay
Klebsiella pneumoniae = assay: Antibacterial activity against wild type Klebsiella pneumoniae ATCC 43816 by CLSI-based broth microdilution assay
Escherichia coli [4] = assay: Antibacterial activity against wild type Escherichia coli ATCC 25922 at pH 7.4 by CLSI-based broth microdilution assay
Escherichia coli [5] = assay: Antibacterial activity against Escherichia coli BW25113/JW0451-2 harboring AcrB deletion mutant by CLSI-based broth microdilution assay

| Compound | MIC (Pseudomonas aeruginosa [1]) [µg/mL] | MIC (Pseudomonas aeruginosa [2]) [µg/mL] | MIC (Pseudomonas aeruginosa [3]) [µg/mL] | MIC (Klebsiella pneumoniae) [µg/mL] | MIC (Escherichia coli [4]) [µg/mL] | MIC (Escherichia coli [5]) [µg/mL] |
| --- | --- | --- | --- | --- | --- | --- |
| Cc1c(N2CC[C@@H]([C@H](C)N)C2)c(F)cc2c(OCCN(C)C)cc(=O)n(C3CC3)c12 | 4 (≈ 9.6 µM) | 8 (≈ 19.2 µM) | 8 (≈ 19.2 µM) | 4 (≈ 9.6 µM) | 1 (≈ 2.4 µM) |  |
| Cc1c(N2CC3CC3(CN)C2)c(F)cc2c(CN)cc(=O)n(C3CC3)c12 (racemic) | 4 (≈ 11.2 µM) | 16 (≈ 44.9 µM) | 32 (≈ 89.8 µM) | 32 (≈ 89.8 µM) | 8 (≈ 22.4 µM) | 1 (≈ 2.81 µM) |
| Cc1c(N2CC3CC3(N)C2)c(F)cc2c(CN)c(Cl)c(=O)n(C3CC3)c12 (stereo unspecified) | 1 (≈ 2.65 µM) | 2 (≈ 5.31 µM) | 8 (≈ 21.2 µM) | 0.5 (≈ 1.33 µM) | 0.25 (≈ 0.663 µM) | 0.06 (≈ 0.159 µM) |
| Cc1c(N2CC[C@@H](N)C2)c(F)cc2c(CN)cc(=O)n(C3CC3)c12 | 8 (≈ 24.2 µM) | 32 (≈ 96.9 µM) | > 32 | 8 (≈ 24.2 µM) | 16 (≈ 48.4 µM) | 2 (≈ 6.05 µM) |
| Cc1c(N2CC[C@@H]([C@H](C)N)C2)c(F)cc2c(Cl)cc(=O)n(C3CC3)c12 | 4 (≈ 11 µM) | 8 (≈ 22 µM) | 8 (≈ 22 µM) | 4 (≈ 11 µM) | 2 (≈ 5.5 µM) | 0.06 (≈ 0.165 µM) |
| Cc1c(N2CC[C@@H]([C@H](C)N)C2)c(F)cc2c(-c3n[nH]c(=O)o3)cc(=O)n(C3CC3)c12 | 8 (≈ 19.3 µM) | 32 (≈ 77.4 µM) | > 32 | 32 (≈ 77.4 µM) | 8 (≈ 19.3 µM) |  |
| Cc1c(N2C[C@@H]3[C@@H](N)[C@@H]3C2)c(F)cc2c(CN)cc(=O)n(C3CC3)c12 | 1 (≈ 2.92 µM) | 2 (≈ 5.84 µM) | 16 (≈ 46.7 µM) | 4 (≈ 11.7 µM) | 1 (≈ 2.92 µM) | 0.25 (≈ 0.73 µM) |
| Cc1c(N2CCNCC2)c(F)cc2c(CN)cc(=O)n(C3CC3)c12 | 0.5 to 1 (≈ 1.51 to 3.03 µM) | 1 to 2 (≈ 3.03 to 6.05 µM) | 4 to 8 (≈ 12.1 to 24.2 µM) | 0.5 to 2 (≈ 1.51 to 6.05 µM) | 0.25 to 4 (≈ 0.757 to 12.1 µM) | 0.06 to 1 (≈ 0.182 to 3.03 µM) |
| Cc1c(N2CC[C@@H]([C@H](C)N)C2)c(F)cc2c(CO)cc(=O)n(C3CC3)c12 | 4 (≈ 11.1 µM) | 8 (≈ 22.3 µM) | 16 (≈ 44.5 µM) | 32 (≈ 89 µM) | 16 (≈ 44.5 µM) | 0.25 (≈ 0.696 µM) |
| Cc1c(N2CCCC2)c(F)cc2c(CN)cc(=O)n(C3CC3)c12 | 4 (≈ 12.7 µM) | 8 (≈ 25.4 µM) | 32 (≈ 101 µM) | 2 (≈ 6.34 µM) | 1 (≈ 3.17 µM) | 0.06 (≈ 0.19 µM) |
| Cc1c(N2CCC3CC3(N)C2)c(F)cc2c(CN)cc(=O)n(C3CC3)c12 (stereo unspecified) | 4 (≈ 11.2 µM) | 16 (≈ 44.9 µM) | 16 (≈ 44.9 µM) | 4 (≈ 11.2 µM) | 4 (≈ 11.2 µM) | 1 (≈ 2.81 µM) |
| NCc1cc(=O)n(C2CC2)c2cc(N3CC4CC4(N)C3)c(F)cc12 (stereo unspecified) | 2 (≈ 6.09 µM) | 4 (≈ 12.2 µM) | 16 (≈ 48.7 µM) | 4 (≈ 12.2 µM) | 1 (≈ 3.05 µM) | 0.5 (≈ 1.52 µM) |
| Cc1c(N2CC[C@@H]([C@H](C)N)C2)c(F)cc2c(C#N)cc(=O)n(C3CC3)c12 | 1 (≈ 2.82 µM) | 1 (≈ 2.82 µM) | 4 (≈ 11.3 µM) | 2 (≈ 5.64 µM) | 1 (≈ 2.82 µM) | ≤ 0.03 |
| COc1c(N2CC3(C)CC3(N)C2)c(F)cc2c(CN)cc(=O)n(C3CC3)c12 (stereo unspecified) | 8 (≈ 21.5 µM) | 16 (≈ 43 µM) | 32 (≈ 85.9 µM) | 4 (≈ 10.7 µM) | 1 (≈ 2.68 µM) | 0.25 (≈ 0.671 µM) |
| NCc1cc(=O)n(C2CC2)c2c(OC(F)F)c(N3CC4CC4(N)C3)c(F)cc12 (stereo unspecified) | 8 (≈ 20.3 µM) | 32 (≈ 81.1 µM) | > 32 | 8 (≈ 20.3 µM) | 2 (≈ 5.07 µM) | 1 (≈ 2.54 µM) |
| Cc1c(N2C[C@@]3(C)C[C@@]3(N)C2)c(F)cc2c(CN)cc(=O)n(C3CC3)c12 (racemic) | 1 (≈ 2.81 µM) | 2 (≈ 5.61 µM) | 4 (≈ 11.2 µM) | 0.25 (≈ 0.701 µM) | 0.125 (≈ 0.351 µM) | ≤ 0.03 |
| Cc1c(N2C[C@H]3CC[C@@]3(N)C2)c(F)cc2c(CN)cc(=O)n(C3CC3)c12 (racemic) | 2 (≈ 5.61 µM) | 4 (≈ 11.2 µM) | 8 (≈ 22.4 µM) | 4 (≈ 11.2 µM) | 2 (≈ 5.61 µM) | 0.25 (≈ 0.701 µM) |
| N#Cc1c(N2CC3CC3(N)C2)c(F)cc2c(CN)cc(=O)n(C3CC3)c12 (stereo unspecified) | 2 (≈ 5.66 µM) | 4 (≈ 11.3 µM) | 16 (≈ 45.3 µM) | 2 (≈ 5.66 µM) | 1 (≈ 2.83 µM) | 0.125 (≈ 0.354 µM) |
